Here are results for 6 molecules from patent US9566307B2, “Pharmaceutical composition” (priority 2012, dated 2017).

Residues, ends and D or L forms follow the SMILES beside them. *: point of attachment. Cbz = O=C(OCc1ccccc1)*; CH2F = FC*

For one data set, the system named is WiDr. As to the kind of experiment: Oxaliplatin resistance check, cell survival rate by MTS technique. It is filed as cell-based, human. The note with it: oxaliplatin 200 μM, 48 hours, FIG. 17. As to the method: (§1) In addition, in order to check the oxaliplatin resistance of, among the test-target cells, WiDr and HT29, respective cell survival rates of WiDr and HT29 after cultured for 48 hours in culture media containing oxaliplatin of a predetermined concentration were evaluated through an MTS technique.

The test system of a further data set is HT29. Described as above. It is filed as cell-based, human. The note with it: HT29, oxaliplatin 100 μM, 48 hours; FIG. 17. As to the method:
as §1

In data set [1] the test system is T.Tn (esophageal cancer cell line). As to the kind of experiment: Effects of various inhibitors to cytotoxicity of EV4 type (1), microscope images. It is filed as cell-based, human. The note with it: EV4 type MOI=0.1, four days after infection, 100 μM Z-VADfmk, 25 μM LY294002, 0.1 μM PD0325901, 1.0 μM bpV, FIG. 2. As for the experimental part: The inhibitors tested to check the effects to the cytotoxicity of EV4 type were Z-VADfmk (R&D System Corporation) as a pan-caspase inhibitor, LY294002 (Santa Cruz Biotechnology Corporation) as a PI3K inhibitor, PD0325901 (Wako Corporation) as an MEK inhibitor, and bpV (Merck Corporation) as a PTEN inhibitor.
T.Tn was disseminated in a plate with 96 wells at 1×10^4 cells/well, and the plate was left stationary under a condition of 37° C. and 5% CO2. The culture medium in the well was replaced with a culture medium added with each inhibitor so as to be 100 μl/well. As to the concentrations of the respective inhibitors, 100 μM for Z-VADfmk, 25 μM for LY294002, 0.1 μM for PD0325901, and 1.0 μM for bpV. After the culture medium was replaced, the plate was left stationary under a condition of 37° C. and 5% CO2 for one hour. After the culture medium was eliminated, 100 μl of the diluted solution of EV4 type diluted with OPTI-MEM I so as to make EV4 type to be MOI=0.1 was added to each well, and was left stationary under a condition of 37° C. and 5% CO2 for one hour. Next, the diluted solution of EV4 type was eliminated, and the RPMI culture media containing the respective inhibitors were added to respective wells, and were co-cultured. Four days after the start of co-culturing, the image of each well was picked up by an optical microscope. Note that the concentration of each inhibitor was set to be a concentration expected not showing a cytotoxicity to T.Tn.

Data set [2] deals with TE8 tumor indicating a resistivity against CDDP. As to the kind of experiment: In vivo antitumor effect of EV4 type to CDDP resistant tumor, tumor volume. More on the design: species or system nude mouse. The note with it: CDDP administered group, 125 μg/administration in abdominal cavity on second day; FIG. 10. As for the experimental part:
The tumor refraction performance of EV4 type to a TE8 bearing nude mouse indicating a resistivity against CDDP (also called cisplatin) utilized in chemotherapies for esophageal cancer was examined. A nude mouse was inoculated with TE8 like the fifth example (0th day), and when it was confirmed that the tumor major axis became equal to or greater than 4 mm, CDDP dissolved in a normal saline solution was administered in an abdominal cavity at 125 μg/administration (second day). Note that for a non-treated group, the same amount of normal saline solution was administered. Eight days after the inoculation of TE8, furthermore, an EV4 type solution suspended in OPTI-MEM I of 50 μl was administered in the tumor once per a day and at a total of five times and at 1×10^7 TCID50/administration or 5×10^7 TCID50/administration. For the non-treated group and the CDDP administered group, the same amount of OPTI-MEM I was administered. The evaluation items were the tumor volume and the body weight like the fourth example.

Another data set concerns TE8 cells. As to the kind of experiment: Effect of MEK inhibitor to cytotoxicity of EV4 type (2), Celltilter-Glo living cell quantitation. The format is cell-based, human. The note with it: EV4 type MOI=1.0, PD0325901 50-nM, 48 hours co-culturing, FIG. 3. As for the experimental part: An effect of an MEK inhibitor PD0325901 to the cytotoxicity of EV4 type was quantitatively examined.
TE8 cells was disseminated in a plate with 96 wells at 1×10^4 cells/well, and the plate was left stationary for six hours under a condition of 37° C. and 5% CO2. The culture medium in the well was replaced with a culture medium containing a DMSO solution of PD0325901 of 50-nM. After the culture medium was replaced, the plate was left stationary for one hour under a condition of 37° C. and 5% CO2. After the culture medium was eliminated, 100 μl of EV4 type diluted solution diluted with OPTI-MEM I so as to have MOI=1.0 was added to each well, and the plate was left stationary for one hour under a condition of 37° C. and 5% CO2. For a control, a diluted solution of 100 μl containing no EV4 type was added. Next, the diluted solution was eliminated, and the culture media containing PD0325901 were added to respective wells, and were co-cultured. 48 hours after the start of co-culturing, living cells were quantitated using a Celltilter-Glo (Registered Trademark) kit of Promega corporation.

As to `O=C1[O][Pt]2([NH][C@@H]3CCCC[C@H]3[NH]2)[O]C1=O` [oxaliplatin], the Cell survival rate result with WiDr and with HT29 was “maintained the similar level of cell survival rate to those of the control group” throughout. For `COC(=O)C[C@H](NC(=O)[C@H](C)NC(=O)[C@@H](NC(=O)OCc1ccccc1)C(C)C)C(=O)CF` [Z-VADfmk] (Cbz-Val-Ala-Asp(OMe)-CH2F), the “Effect of inhibitor on the cytotoxicity by EV4 type” value (from here on “Effect of inhibitor … by EV4 type”) in data set [1] is on record as “reduced”. `O=c1cc(N2CCOCC2)oc2c(-c3ccccc3)cccc12` [LY294002]: in data set [1], the “Effect of inhibitor … by EV4 type” value is listed as “enhanced”.

For the molecule `[NH2][Pt]([NH2])([Cl])[Cl]` [CDDP, cisplatin], the “Tumor volume, change with time” value in data set [2] is “suppression of the increase of the tumor volume for eight days, but the increase of the tumor volume was observed thereafter”. For `O=C(NOC[C@H](O)CO)c1ccc(F)c(F)c1Nc1ccc(I)cc1F` [PD0325901], in data set [1], the “Effect of inhibitor … by EV4 type” value is on record as “enhanced”. Besides, in the data set on TE8 cells, the “Effect of inhibitor on the cytotoxicity of EV4 type (cell survival rate)” value was “significantly enhanced”. In the case of bpV, the “Effect of inhibitor … by EV4 type” value in data set [1] is “reduced”.
